Results reported in patent US20080033029A1, “Treating Digestive Tract Conditions” (MAYO FOUNDATION FOR MEDICAL EDUCATION AND RESEARCH, priority 2004, published 2008).

Columns and labels:
[1] = test system: ICC (interstitial cells of Cajal); experiment: Organotypic culture of adult mouse small intestine explants: ICC number; assay type: cell-based; settings: 5HT 1 μM twice daily; explants from 6 month old mice; fixed at day 8; c-Kit staining, confocal 3D
Protocol: Briefly, one cm segments of mouse small intestine were cut, pinned flat mucosa side up, stripped of mucosa and submucosa layers, and placed into fresh, sterile-filtered Kreb's solution with 3 mM antibiotic. Krebs was removed, and DMEM (Dulbecco's Modified Eagle's Media) with 10% FBS (Fetal Bovine Serum) and 1% antibiotic/antimycotic was added to the culture. […] In the control explant, medium was added without 5HT. The tissue was fixed at day 8 and stained using an antibody to c-Kit. […]

[2] = test system: ICC (interstitial cells of Cajal); experiment: ICC culture: number of ICC with or without 5HT; assay type: cell-based, mouse; settings: 5HT 1 μM added every 12 hours for 24 hours; ICC from 6 day old Balb/C mice; c-kit antibody; untreated 8±0.5; P<0.0004; FIG. 1
Text: (§1) Blinded parallel cultures were established (n=2, 6 day old Balb/C mice yielding 6 coverslips). […] ICC were identified using an antibody to c-kit and counted. Mast cells, which were identified by their characteristic size and round shape, were not included in the analysis.

[3] = test system: ICC (interstitial cells of Cajal); 5HT2B receptor; experiment: ICC culture: effect of 5HT2B receptor antagonist on the 5HT-induced increase in ICC number
Text: as §1

Row | Structure (SMILES) | number of ICC in explant versus control explant [1] | number of ICC per HPF [2] | number of ICC per HPF [3]
1 | NCCc1c[nH]c2ccc(O)cc12 [5HT, Serotonin] | greater number of ICC | 14±0.4 ICC per HPF | –
2 | Cc1cc(NC(=O)Nc2ccc3c(ccn3C)c2)sn1 [SB204741] | – | – | 9±0.2 ICC per HPF
